According to patent US20250353825A1, “CANNABICYCLOL DERIVATIVES AND PREPARATION METHODS THEREOF” (priority 2023, published 2025):
Where two headings read alike, the source gives them in different places.

Legend:
Format in all cases: cell-based
GSC-3 (3#-GSC) = assay: MTS cell viability assay, glioblastoma stem cells GSC-3 (3#-GSC); conditions: for selective anti-glioma stem cell viability: judged in words from preliminary viability screening against 3#-GSC, 293T and U251
Procedure: (§1) Primary viability screening: (1) the synthesized compounds 3a to 13d were respectively dissolved in DMSO to prepare a 40 μg/mL cannabicyclol and cannabicyclol derivative solutions.
(§2) (2) A control group: a 200 μL DMSO solvent.
(§3) (3) The solutions of compounds 3a to 13d were diluted in a twofold gradient to obtain cannabicyclol and cannabicyclol derivative solutions at concentrations of 40 μg/mL, 20 μg/mL, 10 μg/mL, 5 μg/mL, 2.5 μg/mL, 1.25 μg/mL, and 0.625 μg/mL, and 0.3125 μg/mL, respectively.
(§4) (4) Three glioblastoma stem cells (GSC-3, GSC-12, and GSC-18), three pancreatic cancer cell-derived stem cells (PANC-1-CSC, BXPC-3-CSC, and ASPC1-CSC), three liver cancer cell-derived stem cells (HepG2-CSC, MHCC97H-CSC, and SMMC7721-CSC), HEK-293T cells, 16 tumor cells (U251, U87, T98G, PANC1, BXPC3, ASPC1, HepG2, MHCC97H, SMMC7721, PC3, SKOV3, MDA-MB231, A549, HCT116, HEC-1B, MKN28), and differentiated glioblastoma stem cells (GSC-3diff and GSC-12diff) derived from GSC-3 and GSC-12 (all of the cells were provided by the Laboratory of Tumor Animal Model Preparation and Application Research, West China Hospital, Sichuan University) were inoculated into a 96-well plate at a concentration of 2×10^4 cells/well, and 100 μL of culture medium was then added to each well;
(§5) (5) 2) HEK-293T, GSC-3diff, GSC-12diff, and the 16 tumor cells were added with DMEM, 10% FBS, and 1% double antibody culture medium. Cancer stem cells (CSCs) were added with serum-free stem cell medium consisting of DMEM/F12, EGF (20 ng/mL), bFGF (20 ng/mL), B27 (1×), and 1% double antibody culture medium.
(§6) (6) Inoculated cells were put into a cell culture incubator for 24 hours, and after the cells were well adhered to the wall, the culture medium in the 96-well plate was discarded.
(§7) (7) 200 μL cannabicyclol and cannabicyclol derivatives solutions at different concentrations were added to the cultured cells.
(§8) (8) The experiment was set up with 3 replicates.
(§9) (9) The 96-well plate was placed in a cell culture incubator, and incubation was continued at 37° C. and 5% CO2 for 72 hours. Then, 100 μL of cannabicyclol and cannabicyclol derivative solution per well was discarded (100 μL of DMSO solvent was discarded for the control group), and 20 μL of LMTS (CellTiter AQueous Non-Radioactive Cell Proliferation Assay, #G3581) was mixed and continued to be placed in the cell incubator for 2 hours of incubation.
(§10) (10) The absorbance value at 490 nm was measured on an enzyme labeling apparatus, and the IC50 value was calculated.

U251 = assay: MTS cell viability assay, U251
Procedure: as §1, §2, §3, §4, §5, §6, §7, §8, §9, §10

[1] = MTS cell viability assay, HEK-293T (293T) normal cells; conditions: human
Procedure: as §1, §2, §3, §4, §5, §6, §7, §8, §9, §10

[2] = primary viability screening, 72 hours, MTS, test concentration not stated
[3] = primary viability screening, 72 hours, MTS, test concentration not stated, read-out: Cell viability in 293T (%)
[4] = HEK-293T (293T) normal cells, primary viability screening, 72 hours, MTS, test concentration not stated, read-out: Cell viability in 293T (%)

Row | SMILES | selective anti-glioma stem cell viability (GSC-3 (3#-GSC)) | Cell viability in 3#-GSC (%) (GSC-3 (3#-GSC); [2]) | Cell viability in U251 (%) (U251; [2]) | viability at 72 h [1, 3] | Cell viability in 3#-GSC (%) (GSC-3 (3#-GSC); 72 h) | Cell viability in U251 (%) (U251; human, 72 h) | viability at 72 h [1] | viability at 72 h [1, 4]
1 | CC12CCC3C1C(c1c(O)cccc1O2)C3(C)C (centres unmarked) [Compound 3b] | selective anti-glioma stem cell viability | 32% | 97% | 97% |  |  |  | 
2 | Cc1cc(O)c2c(c1)OC1(C)CCC3C1C2C3(C)C (centres unmarked) [Compound 3c] |  |  |  |  | ≥100% | 88% | ≥ 100% | 
3 | CCCc1cc(O)c2c(c1)OC1(C)CCC3C1C2C3(C)C (centres unmarked) [Compound 3d] |  | 40% | 71% |  |  |  |  | 91%
4 | CCCCc1cc(O)c2c(c1)OC1(C)CCC3C1C2C3(C)C (centres unmarked) [Compound 3e] |  | 30% | 17% |  |  |  |  | 60%
5 | CCCCCCc1cc(O)c2c(c1)OC1(C)CCC3C1C2C3(C)C (centres unmarked) [Compound 3f] | a certain degree of selective anti-glioma stem cell viability | 20% | 78% |  |  |  |  | 18%
6 | CCCCCCCc1cc(O)c2c(c1)OC1(C)CCC3C1C2C3(C)C (centres unmarked) [Compound 3g] |  | 90% | 79% |  |  |  |  | 11%
7 | CCCCCCCCc1cc(O)c2c(c1)OC1(C)CCC3C1C2C3(C)C (centres unmarked) [Compound 3h] |  | 87% | 75% |  |  |  |  | 16%
8 | CCCCCCCCCCCCCc1cc(O)c2c(c1)OC1(C)CCC3C1C2C3(C)C (centres unmarked) [Compound 3i] |  | 33% | 79% |  |  |  |  | 8%
9 | CC12CCC3C1C(c1c(O)cc(-c4ccccc4)cc1O2)C3(C)C (centres unmarked) [Compound 3k] |  |  |  |  | 52% | 15% | 45% | 
10 | Cc1ccc(-c2cc(O)c3c(c2)OC2(C)CCC4C2C3C4(C)C)cc1 (centres unmarked) [Compound 3l] |  |  |  |  | 51% | 45% | 62% | 
11 | Cc1cccc(-c2cc(O)c3c(c2)OC2(C)CCC4C2C3C4(C)C)c1 (centres unmarked) [Compound 3m] | weak selective anti-glioma stem cell viability |  |  |  | 42% | 90% | ≥ 100% | 
12 | Cc1ccccc1-c1cc(O)c2c(c1)OC1(C)CCC3C1C2C3(C)C (centres unmarked) [Compound 3n] |  |  |  |  | 41% | 17% | 50% | 
13 | Cc1cc(C)cc(-c2cc(O)c3c(c2)OC2(C)CCC4C2C3C4(C)C)c1 (centres unmarked) [Compound 3o] |  |  |  |  | 64% | 88% | 81% | 
14 | CC(C)(C)c1ccc(-c2cc(O)c3c(c2)OC2(C)CCC4C2C3C4(C)C)cc1 (centres unmarked) [Compound 3p] | weak selective anti-glioma stem cell viability |  |  |  | 67% | 97% | ≥ 100% | 
15 | COc1ccc(-c2cc(O)c3c(c2)OC2(C)CCC4C2C3C4(C)C)cc1 (centres unmarked) [Compound 3q] |  |  |  |  | 39% | 19% | 40% | 
16 | CC12CCC3C1C(c1c(O)cc(-c4ccc(F)cc4)cc1O2)C3(C)C (centres unmarked) [Compound 3r] |  |  |  |  | 43% | 76% | 45% | 

Row | SMILES | selective anti-glioma stem cell viability (GSC-3 (3#-GSC)) | Cell viability in 3#-GSC (%) (GSC-3 (3#-GSC); [2]) | Cell viability in U251 (%) (U251; [2]) | viability at 72 h [1, 3] | Cell viability in 3#-GSC (%) (GSC-3 (3#-GSC); 72 h) | Cell viability in U251 (%) (U251; human, 72 h) | viability at 72 h [1] | viability at 72 h [1, 4]
17 | CC12CCC3C1C(c1c(O)cc(-c4ccc(Cl)cc4)cc1O2)C3(C)C (centres unmarked) [Compound 3s] |  |  |  |  | 49% | 91% | 64% | 
18 | CCCCCc1cc(O)c2c(c1)OC1(C)CCC3C(C)C2C31 (centres unmarked) [Compound 3u] |  | 30% | 72% |  |  |  |  | 78%
19 | CCCCCc1cc(O)c2c(c1)OC1(C)CCC3C(CC)C2C31 (centres unmarked) [Compound 3v] |  | 30% | 71% | 79% |  |  |  | 
20 | CCCCCc1cc(O)c2c(c1)OC1(C)CCC3C(c4ccccc4)C2C31 (centres unmarked) [Compound 3x] |  | 70% | 77% |  |  |  |  | 97%
21 | CCCCCc1cc(O)c2c(c1)OC1(C)CCC3C(C4CC4)C2C31 (centres unmarked) [Compound 3y] |  | 47% | 98% |  |  |  |  | ≥ 100%
22 | C=CCOc1cc(CCCCC)cc2c1C1C3C(CCC3(C)O2)C1(C)C (centres unmarked) [Compound 7a] |  | ≥100% | 81% |  |  |  |  | 77%
23 | CCCCCc1cc(OC)c2c(c1)OC1(C)CCC3C1C2C3(C)C (centres unmarked) [Compound 7b] |  | ≥100% | 91% |  |  |  |  | 95%
24 | CCCCCc1cc(OCC)c2c(c1)OC1(C)CCC3C1C2C3(C)C (centres unmarked) [Compound 7c] |  | ≥100% | 80% |  |  |  |  | 79%
25 | CCCCCc1cc(OCCC)c2c(c1)OC1(C)CCC3C1C2C3(C)C (centres unmarked) [Compound 7d] |  | ≥100% | 82% |  |  |  |  | 77%
26 | C#CCOc1cc(CCCCC)cc2c1C1C3C(CCC3(C)O2)C1(C)C (centres unmarked) [Compound 7e] |  | ≥100% | 72% |  |  |  |  | 75%
27 | CCCCCc1cc(OCC(=O)NCCc2cc3ccccc3[nH]2)c2c(c1)OC1(C)CCC3C1C2C3(C)C (centres unmarked) [Compound 7h] |  | 72% | ≥100% |  |  |  |  | 87%
28 | CCCCCc1cc(OCc2cn(S(=O)(=O)c3ccc(C)cc3)nn2)c2c(c1)OC1(C)CCC3C1C2C3(C)C (centres unmarked) [Compound 7i] |  | 50% | 21% |  |  |  |  | 71%
29 | CCCCCc1cc(OC(C)=O)c2c(c1)OC1(C)CCC3C1C2C3(C)C (centres unmarked) [Compound 9b] | both the viability and selectivity were maintained | 28% | 82% |  |  |  |  | 92%
30 | CCCCCc1cc(OC(=O)Cc2ccc3ccccc3c2)c2c(c1)OC1(C)CCC3C1C2C3(C)C (centres unmarked) [Compound 9e] |  | ≥100% | ≥100% |  |  |  |  | ≥ 100%
31 | C=CC(=O)Oc1cc(CCCCC)cc2c1C1C3C(CCC3(C)O2)C1(C)C (centres unmarked) [Compound 9f] |  | 41% | 64% |  |  |  |  | 35%
32 | CCCCCc1cc(OC(=O)/C=C/c2ccccc2)c2c(c1)OC1(C)CCC3C1C2C3(C)C (centres unmarked) [Compound 9g] |  | ≥100% | ≥100% |  |  |  |  | ≥ 100%
